# Measurements as given in publication PMC7216583 (Parasites & Vectors, 2020).
# Where “and” joins values, the source holds several entries; their conditions need not be identical. Identical values can stand only once. Like-named read-outs stand apart in the source and are kept apart here.
# Experiments:
# [1] = system: Toxoplasma gondii RH-2F tachyzoites; experiment: microbe, parasite or virus in culture; settings: 72 h
# Aβ secretion = system: Aβ secretion; design: method as in S-inhibitor; settings: ref S-inhibitor; read-out: EC50, decrease of Aβ secretion; cited from earlier work
# BACE1 = system: BACE1; design: method as in S-inhibitor; settings: two values given; ref S-inhibitor; cited from earlier work
# HSP90β = system: HSP90β; design: method as in S-inhibitor; settings: ref S-inhibitor; cited from earlier work
# [2] = system: Toxoplasma gondii RH-2F tachyzoites; settings: preliminary screen, mean
# CDK6 = system: CDK6; design: method as in S-inhibitor; settings: ref S-inhibitor; cited from earlier work
# CDK4 = system: CDK4; design: method as in S-inhibitor; settings: ref S-inhibitor; cited from earlier work
# CDK7 = system: CDK7; design: method as in S-inhibitor; settings: ref S-inhibitor; cited from earlier work
# CDK5 = system: CDK5; design: method as in S-inhibitor; settings: ref S-inhibitor; cited from earlier work
# CDK2 = system: CDK2; design: method as in S-inhibitor; settings: ref S-inhibitor; cited from earlier work
# PDPK1 = target: PDPK1; design: method as in S-inhibitor; settings: ref S-inhibitor; cited from earlier work
# PI3Kγ = settings: read-out: IC50, PI3Kγ; ref S-inhibitor; cited from earlier work
# [3] = system: LPS-induced TNF-α release; design: method as in S-inhibitor; settings: ref S-inhibitor; cited from earlier work
# some cell lines = system: some cell lines; design: method as in S-inhibitor; settings: ref S-inhibitor; cited from earlier work
# v-Abl = system: v-Abl; design: method as in library vendor description; settings: ref library vendor description; cited from earlier work
# [4] = system: HCV NS3-4A serine protease; design: method as in S-inhibitor; settings: ref S-inhibitor; cited from earlier work
# Tie2 = system: Tie2; design: method as in S-inhibitor; settings: ref S-inhibitor; cited from earlier work
# PuSA = system: PuSA; design: method as in S-inhibitor; settings: ref S-inhibitor; cited from earlier work
# LAP = system: LAP; design: method as in S-inhibitor; settings: ref S-inhibitor; cited from earlier work
# in vitro = settings: human, Host viability (%) mean
# Aminopeptidase N = target: Aminopeptidase N; design: method as in S-inhibitor; settings: ref S-inhibitor; cited from earlier work
# CFTR = system: CFTR; design: method as in S-inhibitor; settings: ref S-inhibitor; cited from earlier work
# MEK5 = system: MEK5; design: method as in S-inhibitor; settings: ref S-inhibitor; cited from earlier work
# [5] = read-out: Parasite inhibition (%) mean, preliminary screen, mean
# [6] = read-out: Parasite inhibition (%) mean
compound,measurement,setting,value
C[C@@]1(c2cc(-c3cncnc3)c(F)cc2F)CCSC(N)=N1 [LY2811376],inhibition of growth at 5 µM,[1]; [5],-19.7%
same,EC50,Aβ secretion,~300 nM
CCNC(=O)c1cc2c(-c3cc(OCCN4CCCC4)c(Cl)cc3Cl)nc(N)nc2s1 [NVP-BEP800],inhibition of growth at 5 µM,[1]; [6],0.7%
same,IC50,HSP90β,58 nM
CC(=O)c1c(C)c2cnc(Nc3ccc(N4CCNCC4)cn3)nc2n(C2CCCC2)c1=O.O=S(=O)(O)CCO [PD 0332991 (Palbociclib) Isethionate],Parasite inhibition (%) mean,[2],2.6%
same,IC50,CDK6,16 nM
CC(C)CC(=O)Nc1[nH]nc2c1CN(C(=O)C1CCN(C)CC1)C2(C)C [PHA-793887],inhibition of growth at 5 µM,[1]; [5],0.6%
same,IC50,CDK7,10 nM
same,IC50,CDK5,5 nM
same,IC50,CDK2,8 nM
CCCCCCCCCCCCc1ccc(S(=O)(=O)Nc2nncs2)cc1 [PHT-427],inhibition of growth at 5 µM,[1]; [5],35.7%
same,Ki,PDPK1,5.2 µM
CC(=O)Nc1nc(C)c(-c2ccc(Cl)c(S(=O)(=O)NCCO)c2)s1 [PIK-93],IC50,PI3Kγ,[…]
same,inhibition of growth at 5 µM,[1]; [6],1.5%
Nc1cccc2c1C(=O)N(C1CCC(=O)NC1=O)C2=O (centres unmarked) [Pomalidomide],inhibition of growth at 5 µM,[1]; [5],0.8%
same,IC50,[3],13 nM
C#CCC(Cc1cnc2nc(N)nc(N)c2n1)c1ccc(C(=O)N[C@@H](CCC(=O)O)C(=O)O)cc1 (some centres unmarked) [Pralatrexate (Folotyn)],inhibition of growth at 5 µM,[1]; [5],20.4%
same,IC50,some cell lines,< 300 nM
CN1CCN(CCOc2cc(OC3CCOCC3)c3c(Nc4c(Cl)ccc5c4OCO5)ncnc3c2)CC1 [Saracatinib (AZD0530)],inhibition of growth at 5 µM,[1]; [5],32.6%
same,IC50,v-Abl,30 nM
CCC[C@H](NC(=O)[C@H]1[C@H]2CCC[C@H]2CN1C(=O)[C@@H](NC(=O)[C@@H](NC(=O)c1cnccn1)C1CCCCC1)C(C)(C)C)C(=O)C(=O)NC1CC1 [Telaprevir (VX-950)],inhibition of growth at 5 µM,[1]; [5],4.4%
same,IC50,[4],350 nM
COc1ccc2cc(-c3[nH]c(-c4ccc([S+](C)[O-])cc4)nc3-c3ccncc3)ccc2c1 (centres unmarked) [Tie2 kinase inhibitor],inhibition of growth at 5 µM,[1]; [5],13%
same,IC50,Tie2,250 nM
CC(C)C[C@@H](C(=O)N[C@H](C(=O)OC1CCCC1)c1ccccc1)[C@H](O)C(=O)NO [Tosedostat (CHR2797)],inhibition of growth at 5 µM,[1]; [5],85.6%
same,IC50,PuSA,150 nM
same,IC50,LAP,100 nM
same,viability at 72 h,in vitro,88.8%
same,IC50,Aminopeptidase N,220 nM
Cc1ccc(NC(=O)C2(c3ccc4c(c3)OC(F)(F)O4)CC2)nc1-c1cccc(C(=O)O)c1 [VX-809],inhibition of growth at 5 µM,[1]; [5],9.4%
same,EC50,CFTR,100 nM
BIX 02188,Parasite inhibition (%) mean,[2],13.7%
same,IC50,MEK5,4.3 nM
